Measurements reported in ChEMBL document CHEMBL1201862, “PubChem BioAssay data set” (2004).
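Each compound was tested at five concentrations against cells in 96-well plates for 48 hours. GI50 is the concentration that inhibits growth by half.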 Active and inactive are the calls of the source. Rule as the data show it: active = GI50 up to about 1.1 µM and inactive = higher.

Legend:
Test in all cases: growth of human tumour cells (NCI), 48 h
[1] = test system: NCI-H23
[2] = test system: SK-OV-3
[3] = test system: A549
[4] = test system: MOLT-4
[5] = test system: SR
[6] = test system: CAKI-1
[7] = test system: LOX IMVI
[8] = test system: HCT-116
[9] = test system: SF-295
[10] = test system: HOP-92
[11] = test system: UACC-257
[12] = test system: SNB-75
[13] = test system: SN12C
[14] = test system: HT-29
[15] = test system: IGROV-1
[16] = test system: OVCAR-8
[17] = test system: A498

Measured: GI50

COc1ccc(C2S/C(=C\c3cc(OC)c(OC)c(OC)c3)C(=O)N2NC(=O)Cc2ccccc2)cc1 (stereo not given)
inactive: [1] > 100 µM | [2] > 100 µM | [3] > 100 µM | [4] 44.3 µM | [5] > 100 µM | [6] > 100 µM | [7] > 100 µM | [8] 89.9 µM | [9] > 100 µM | [10] > 100 µM | [11] 76.6 µM | [12] 67.9 µM | [13] > 100 µM | [14] > 100 µM | [15] > 100 µM | [16] > 100 µM

O=c1[nH]c2cccccc-2c1-c1nc2ccccc2[nH]1
inactive: [1] 31.3 µM | [2] 20.1 µM | [3] 25 µM | [5] 34.2 µM | [6] 20.4 µM | [7] 14.9 µM | [8] 19.8 µM | [9] 30.5 µM | [10] 25.8 µM | [11] > 100 µM | [12] 12.2 µM | [13] 31.6 µM | [14] 52.2 µM | [15] 32.7 µM | [16] 26.5 µM

CCCCN(CCCC)CC(C(=O)Nc1ccccc1)/C(C)=N\NC(=O)c1ccncc1 (stereo not given)
inactive: [1] > 100 µM | [2] > 100 µM | [3] > 100 µM | [4] > 100 µM | [5] > 100 µM | [6] > 100 µM | [7] 81.5 µM | [8] 92 µM | [9] > 100 µM | [10] > 100 µM | [11] > 100 µM | [12] 16.9 µM | [13] > 100 µM | [14] > 100 µM | [15] > 100 µM | [16] > 100 µM

CCOC(=O)c1cc2c(cn1)[nH]c1cccc(N)c12
inactive: [1] > 100 µM | [3] > 100 µM | [4] 61.5 µM | [5] > 100 µM | [6] > 100 µM | [7] > 100 µM | [8] > 100 µM | [9] > 100 µM | [10] > 100 µM | [11] > 100 µM | [12] > 100 µM | [13] > 100 µM | [14] > 100 µM | [15] > 100 µM | [16] > 100 µM

COC1CC(OC)C2OC(c3ccccc3)OCC2O1 (stereo not given)
inactive: [1] > 100 µM | [2] > 100 µM | [3] > 100 µM | [4] > 100 µM | [5] > 100 µM | [7] > 100 µM | [8] > 100 µM | [9] > 100 µM | [11] > 100 µM | [12] > 100 µM | [13] > 100 µM | [14] > 100 µM | [15] > 100 µM | [16] > 100 µM

Cc1cccc2c(O)cc(=O)oc12
inactive: [1] > 100 µM | [2] > 100 µM | [3] > 100 µM | [4] > 100 µM | [5] > 100 µM | [7] > 100 µM | [17] > 100 µM | [8] > 100 µM | [9] > 100 µM | [11] > 100 µM | [12] > 100 µM | [13] > 100 µM | [14] > 100 µM | [15] > 100 µM | [16] > 100 µM

CCCCn1c(-c2ccccc2)cs/c1=N\N=C1C=C(C(C)(C)C)C(=O)C(C(C)(C)C)=C1
inactive: [1] > 100 µM | [3] > 100 µM | [4] > 100 µM | [5] > 100 µM | [6] > 100 µM | [7] > 100 µM | [17] > 100 µM | [8] > 100 µM | [9] > 100 µM | [11] > 100 µM | [13] > 100 µM | [14] > 100 µM | [15] > 100 µM | [16] > 100 µM
